ChEMBL document CHEMBL2163249, “Exploration of natural compounds as sources of new bifunctional scaffolds targeting cholinesterases and beta amyloid aggregation: the case of chelerythrine” (Bioorg Med Chem, 2012)

Legend:
[1] = biological target: Cholinesterase (Equus caballus) (UniProt P81908); conditions: at 2 mg/mL
Description: Inhibition of horse BChE at 2 mg/ml by Ellman's method

[2] = biological target: Acetylcholinesterase (Electrophorus electricus) (UniProt O42275); conditions: at 2 mg/mL
Description: Inhibition of electric eel AChE at 2 mg/ml by Ellman's method

Chain of Cholinesterase (Equus caballus) (P81908 whole entry): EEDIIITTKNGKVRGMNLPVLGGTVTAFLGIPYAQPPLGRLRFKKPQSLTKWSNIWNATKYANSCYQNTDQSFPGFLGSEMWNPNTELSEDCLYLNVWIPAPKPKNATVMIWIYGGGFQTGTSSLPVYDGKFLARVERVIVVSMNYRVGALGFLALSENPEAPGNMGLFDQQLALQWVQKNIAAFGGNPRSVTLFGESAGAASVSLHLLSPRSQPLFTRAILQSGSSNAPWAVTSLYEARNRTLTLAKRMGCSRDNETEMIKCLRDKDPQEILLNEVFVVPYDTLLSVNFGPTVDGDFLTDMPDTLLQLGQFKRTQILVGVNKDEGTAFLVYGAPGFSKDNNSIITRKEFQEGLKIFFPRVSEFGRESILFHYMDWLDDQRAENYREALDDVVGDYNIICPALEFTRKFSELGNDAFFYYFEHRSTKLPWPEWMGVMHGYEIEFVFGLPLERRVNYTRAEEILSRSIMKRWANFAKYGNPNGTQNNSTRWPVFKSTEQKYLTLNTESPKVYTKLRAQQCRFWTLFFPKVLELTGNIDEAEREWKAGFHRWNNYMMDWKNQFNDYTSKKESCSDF

## C/C(=C/C=C/[C@@H](C)C(=O)O)[C@H]1CN[C@H](C(=O)O)[C@H]1CC(=O)O
[1]
  inhibition: 2.83%

## OC[C@H]1O[C@@H](O[C@@H]2OC=C[C@H]3[C@H](O)[C@@H]4O[C@]4(CO)[C@@H]23)[C@H](O)[C@@H](O)[C@@H]1O
[2]
  inhibition: 11.3%
[1]
  inhibition: -5.36%

## CC(C)[C@H]1C(=O)O[C@@H]2CCN3CC=C(COC(=O)[C@](C)(O)[C@]1(C)O)[C@H]23
[2]
  inhibition: 24.2%
[1]
  inhibition: 3.04%

## C=C[C@@](C)(/C=C/c1ccc(O)cc1)CCC=C(C)C
[2]
  inhibition: -7.92%
[1]
  inhibition: 13.4%

## c1ccc2c(Cc3c[nH]c4ccccc34)c[nH]c2c1
[2]
  inhibition: 4.61%
[1]
  inhibition: 21.7%

## CN(C)c1ccc(O)c2c1C[C@H]1C[C@H]3[C@H](N(C)C)C(O)=C(C(N)=O)C(=O)[C@@]3(O)C(O)=C1C2=O
[2]
  inhibition: -0.24%
[1]
  inhibition: -8.62%

## Cc1c2ccncc2c(C)c2c1[nH]c1ccccc12
[2]
  inhibition: -1.87%
[1]
  inhibition: 44.1%

## CC[C@H](C)/C=C(C)/C=C/C1=CC2=C(Cl)C(=O)[C@](C)(OC(C)=O)C(=O)C2=CO1
[2]
  inhibition: 3.54%
[1]
  inhibition: 6.21%

## CC(C)(C)[C@]1(O)CC2OC(=O)CC23C(=O)OC2OC(=O)[C@H](O)C231 (stereo partly drawn)
[1]
  inhibition: 10.9%

## COc1ccc(CC2NCCc3cc(OC)c(OC)cc32)cc1OC (stereo not drawn)
[2]
  inhibition: 4.06%
[1]
  inhibition: 7.36%

## O=c1c(O)c(-c2ccc(O)cc2O)oc2cc(O)cc(O)c12
[2]
  inhibition: 18.1%
[1]
  inhibition: -3.98%

## O=c1c(O)c(-c2cc(O)c(O)c(O)c2)oc2cc(O)cc(O)c12
[2]
  inhibition: 4.65%
[1]
  inhibition: -3.14%

## C[C@@H]1C/C=C/C=C/C=C/C=C/[C@H](O[C@@H]2O[C@H](C)[C@@H](O)[C@H](N)[C@@H]2O)C[C@@H]2O[C@](O)(C[C@@H](O)C[C@H]3O[C@@H]3/C=C/C(=O)O1)C[C@H](O)[C@H]2C(=O)O
[2]
  inhibition: -4.37%
[1]
  inhibition: -8.59%

## N#C[C@H](O[C@@H]1O[C@H](CO[C@@H]2O[C@H](CO)[C@@H](O)[C@H](O)[C@H]2O)[C@@H](O)[C@H](O)[C@H]1O)c1ccccc1
[2]
  inhibition: 0.78%
[1]
  inhibition: 5.7%

## COc1cc2c(cc1OC)[C@@H]1C(=O)c3ccc4c(c3O[C@@H]1CO2)C=CC(C)(C)O4
[2]
  inhibition: -8.14%
[1]
  inhibition: 2.21%

## COc1ccc([C@@H]2CC(=O)c3c(O)cc(O)cc3O2)cc1O
[2]
  inhibition: -4.02%
[1]
  inhibition: -8.75%

## COc1cc(O)c2c(c1)oc(=O)c1c3cc(O)c(O)cc3oc21
[2]
  inhibition: 11.8%
[1]
  inhibition: 11.1%

## N[C@H](C(=O)O)[C@@H]1CC(Cl)=NO1
[2]
  inhibition: 2.09%
[1]
  inhibition: 8.62%

## COC1=CC(=O)O[C@@H](CCc2ccc3c(c2)OCO3)C1
[2]
  inhibition: 24.8%
[1]
  inhibition: 3.66%

## CCCC(=O)O[C@@H]1[C@@H](C)[C@@]2(O)[C@@H](C=C(CO)C[C@]3(O)C(=O)C(C)=C[C@@H]23)[C@@H]2C(C)(C)[C@]12OC(=O)CCC (stereo in doubt; form 1)
[2]
  inhibition: 22.5%
[1]
  inhibition: 0.87%

## C=C[C@H]1CN2CC[C@H]1C[C@@H]2[C@@H](O)c1ccnc2ccccc12
[2]
  inhibition: 5.94%
[1]
  inhibition: 9.07%

## COc1ccc(-c2cc(=O)c3c(O)cc(O)cc3o2)cc1O
[2]
  inhibition: -8.89%
[1]
  inhibition: -6.13%

## CCCCCCCCCCCC1=C(O)C(=O)C=C(O)C1=O
[1]
  inhibition: 1.24%

## CCCCCCCCCCCCCC[C@@H](O)[C@@H](O)[C@H](CO)NC(C)=O
[2]
  inhibition: 0.15%
[1]
  inhibition: 3.97%

## COC1=CC(=O)O[C@@H](/C=C/c2ccc3c(c2)OCO3)C1
[2]
  inhibition: -4.34%
[1]
  inhibition: 0.15%

## c1ccc2c3c([nH]c2c1)CNCC3
[1]
  inhibition: -5.97%

## Oc1cc(O)c2c(c1)O[C@H](c1ccc(O)c(O)c1)[C@H](O)C2
[2]
  inhibition: -4.81%
[1]
  inhibition: 0.47%

## NEOMYCIN SULFATE
[2]
  inhibition: -9.42%
[1]
  inhibition: 10.5%

## C[C@H]1CC[C@@H]2[C@@H](C)[C@H]3[C@H](C[C@H]4[C@@H]5CC=C6C[C@@H](O[C@@H]7O[C@H](CO)[C@H](O)[C@H](O[C@@H]8O[C@H](CO)[C@@H](O)[C@H](O)[C@H]8O)[C@H]7O[C@@H]7O[C@@H](C)[C@H](O)[C@@H](O)[C@H]7O)CC[C@]6(C)[C@H]5CC[C@]34C)N2C1
[2]
  inhibition: 9.15%
[1]
  inhibition: 12.2%

## O=C(O)CCCc1c[nH]c2ccccc12
[1]
  inhibition: -5.54%

## CC[C@@H](CO)NC(=O)[C@@H]1C=C2c3cccc4[nH]cc(c34)C[C@H]2N(C)C1
[2]
  inhibition: 6.45%

## C=C[C@@]1(C)CC(=O)[C@]2(O)[C@@]3(C)[C@@H](O)CCC(C)(C)[C@@H]3[C@H](O)[C@H](OC(C)=O)[C@@]2(C)O1
[1]
  inhibition: 1.35%

## CC1=C(C(=O)O)N2C(=O)[C@@H](NC(=O)[C@H](N)C3=CCC=CC3)[C@H]2SC1
[2]
  inhibition: -0.38%

## O=c1c2ccccc2nc2n1CCc1c-2[nH]c2ccccc12
[2]
  inhibition: -4%

## C=C1O[C@@](CO)(n2cnc3c(N)ncnc32)[C@H](O)[C@@H]1O
[1]
  inhibition: -3.01%

## CC1(C)O[C@H]2CC(=O)OC[C@]23[C@H]2CC[C@@]4(C)[C@H](c5ccoc5)OC(=O)[C@H]5O[C@]54[C@]2(C)C(=O)C[C@@H]13
[2]
  inhibition: -0.85%

## C[C@@H]1C(=O)O[C@H]2C[C@@]34[C@H]5C[C@@H](C(C)(C)C)[C@]36[C@@H](OC(=O)[C@@H]6O)O[C@@]4(C(=O)O5)[C@]21O
[2]
  inhibition: 6.97%

## C[C@@]12C=Cc3occc3[C@H]1CC[C@]13CC(=O)[C@H](CC[C@H]12)C3
[2]
  inhibition: 8.34%

## COc1ccc2c(c1O)-c1c(OC)c(OC)cc3c1[C@H](C2)N(C)CC3
[2]
  inhibition: -6.07%

## CS[C@H]1SC[C@H]2C(=O)N(C)[C@@H](C(C)C)C(=O)OC[C@@H](NC(=O)c3cnc4ccccc4n3)C(=O)N[C@@H](C)C(=O)N(C)[C@@H]1C(=O)N(C)[C@@H](C(C)C)C(=O)OC[C@@H](NC(=O)c1cnc3ccccc3n1)C(=O)N[C@@H](C)C(=O)N2C
[1]
  inhibition: -7.37%

## CCCCCC[C@@H]1[C@@H](OC(=O)C(C)C)[C@H](C)O[C@@H](O)[C@@H](N[C@H](O)c2cccc(NC=O)c2O)[C@@H](C)O[C@H]1O
[2]
  inhibition: -2.88%

## CO[C@H]1[C@H](OC(=O)c2ccc(C)[nH]2)[C@H](O)[C@@H](Oc2ccc3c(O)c(NC(=O)c4c[nH]c(C(=O)Nc5c(O)c6ccc(O[C@H]7OC(C)(C)[C@@H](OC)[C@H](OC(=O)c8ccc(C)[nH]8)[C@@H]7O)c(C)c6oc5=O)c4C)c(=O)oc3c2C)OC1(C)C
[1]
  inhibition: 3.14%

## C[C@@H]1C[C@@H]([C@H](O)CC2CC(=O)NC(=O)C2)C(=O)[C@@H](C)C1
[1]
  inhibition: -2.08%

## CC[C@@H](C(=O)O)[C@@H]1O[C@@H]([C@@H](C)[C@H](O)[C@H](C)C(=O)[C@H](CC)[C@H]2O[C@]3(C=C[C@@H](O)[C@]4(CC[C@@](C)([C@H]5CC[C@](O)(CC)[C@H](C)O5)O4)O3)[C@H](C)C[C@@H]2C)[C@@H](C)C[C@@H]1C
[2]
  inhibition: -1.36%

## Cc1cc2c(C(C)C)c(O)c(O)c(C=O)c2c(O)c1-c1c(C)cc2c(C(C)C)c(O)c(O)c(C=O)c2c1O
[1]
  inhibition: -2.11%

## CC(=O)OCC1=C[C@H]2[C@@H]3C(C)(C)[C@]3(OC(=O)Cc3ccccc3)C[C@@H](C)[C@]2(O)[C@@H]2C=C(C)C(=O)[C@@]2(O)C1
[1]
  inhibition: 6.06%

## OCC1=C[C@@H](O)[C@@H]2C=CO[C@@H](O[C@@H]3O[C@H](CO)[C@@H](O)[C@H](O)[C@H]3O)[C@H]12
[2]
  inhibition: -1.28%

## CC(=O)OC[C@@]1(O)C[C@@]23CC[C@@H]4c5ccoc5CC[C@@]4(C)[C@@H]2CC[C@@H]1C3
[2]
  inhibition: -6.2%

## CC(C)=CCC/C(C)=C/CC/C(C)=C/CC/C(C)=C/CC/C(C)=C/CC/C(C)=C/CC/C(C)=C/CC/C(C)=C/CC/C(C)=C/CO
[2]
  inhibition: -1.74%

## COC1=CC(=O)OC(/C=C/c2ccccc2)C1 (racemic)
[1]
  inhibition: -2.41%

## Nc1ncnc2c1ccn2[C@@H]1O[C@H](CO)[C@@H](O)[C@H]1O
[2]
  inhibition: 4.48%

## CNc1ccc2oc(C[C@H]3O[C@@]4(CC[C@H]3C)O[C@H]([C@H](C)C(=O)c3ccc[nH]3)[C@H](C)C[C@H]4C)nc2c1C(=O)O
[1]
  inhibition: -3.34%

## COc1ccc([C@@H]2OC[C@@H]3[C@H]2CO[C@H]3c2ccc(OC)c(OC)c2)cc1OC
[1]
  inhibition: 0.02%

## O[C@H]1[C@H](O)[C@@H](O)CN2CC[C@H](O)[C@H]12
[1]
  inhibition: 0.79%

## Clc1ccc(C2CC3CCC2N3)cn1 (racemic)
[1]
  inhibition: 5.32%

## c1cncc([C@@H]2CCCCN2)c1
[2]
  inhibition: 0.25%

## COc1ccc([C@@H]2CC(=O)c3c(O)cc(O[C@@H]4O[C@H](CO[C@@H]5O[C@@H](C)[C@H](O)[C@@H](O)[C@H]5O)[C@@H](O)[C@H](O)[C@H]4O)cc3O2)cc1O
[2]
  inhibition: -4.26%

## CC(=O)O[C@@]12C[C@@H](C)[C@@]3(O)[C@@H](C=C(CO)C[C@]4(O)C(=O)C(C)=C[C@@H]34)[C@@H]1C2(C)C
[1]
  inhibition: 3.93%

## OC[C@@H]1[C@@H](O)[C@H](O)[C@H]2[C@@H](O)CCN21
[1]
  inhibition: 1.12%

## COc1cccc2c1cc([N+](=O)[O-])c1c(C(=O)O)cc3c(c12)OCO3
[1]
  inhibition: 22.7%

## CCCCCCCCCCCCCC/C(C(=O)O)=C(\C)C(=O)O
[1]
  inhibition: 9.23%

## C=C1CC[C@@H]2O[C@]2(C)CC[C@@H]2[C@@H]1CC2(C)C
[1]
  inhibition: 1.64%

## COc1ccc2c3c1O[C@H]1C[C@@H](O)C=C[C@@]31CCN(C)C2
[1]
  inhibition: 37.8%

## COc1ccc(Cc2nccc3cc(OC)c(OC)cc23)cc1OC
[2]
  inhibition: 35%

## O=C(O[C@@H]1Cc2c(O)cc(O)cc2O[C@@H]1c1cc(O)c(O)c(O)c1)c1cc(O)c(O)c(O)c1
[1]
  inhibition: -4.27%

## O=C1c2ccc(O)cc2O[C@@H](c2cc(O)c(O)c(O)c2)[C@@H]1O
[2]
  inhibition: 4.04%

## CC1=CC(=O)CC(C)(C)C1(O)/C=C/C(C)=C\C(=O)O (racemic)
[1]
  inhibition: -4.4%

## CNC(=O)Oc1ccc2c(c1)[C@]1(C)CCN(C)[C@@H]1N2C
[1]
  inhibition: 88%

## O=C(O)/C=C/c1c[nH]c2ccccc12
[1]
  inhibition: 4.54%

## CC[C@@]1([C@@H]2O[C@@H]([C@H]3O[C@@](O)(CO)[C@H](C)C[C@@H]3C)C[C@@H]2C)CC[C@H]([C@]2(C)CC[C@]3(C[C@H](O)[C@@H](C)[C@@H]([C@@H](C)[C@@H](OC)[C@H](C)C(=O)O)O3)O2)O1
[1]
  inhibition: 2.48%

## CC(=O)C1=C(O)[C@@H]2[C@H]3c4c[nH]c5cccc(c45)C[C@H]3C(C)(C)N2C1=O
[1]
  inhibition: 6.85%

## CN1C(=O)[C@]23CC4=CC=C[C@H](O)[C@H]4N2C(=O)[C@@]1(CO)SS3
[1]
  inhibition: 10.3%

## CC(C)=CCC[C@](C)(O)[C@H]1CC[C@]2(C)[C@@H]1CC[C@@H]1[C@@]3(C)CCC(=O)C(C)(C)[C@@H]3CC[C@]12C
[1]
  inhibition: -2.48%
